This passage reports Activity results from ChEMBL document CHEMBL1156180, “Synthesis and bioluminescence-inducing properties of autoinducer (S)-4,5-dihydroxypentane-2,3-dione and its enantiomer” (Bioorg Med Chem Lett, 2010).

Active and inactive are the calls of the source. The calls are words filed in the database; no cut-off is given here.

For the experiment, the target named is Autoinducer 2-binding periplasmic protein LuxP (Vibrio harveyi) (UniProt P54300). The experiment can be described thus: Induction of Vibrio harveyi BB170 LuxP sensor protein-mediated quorum sensing activity at 0.5 to 5 ug/ml by reporter bioluminescence assay.
Autoinducer 2-binding periplasmic protein LuxP (Vibrio harveyi), sequence (P54300 whole entry): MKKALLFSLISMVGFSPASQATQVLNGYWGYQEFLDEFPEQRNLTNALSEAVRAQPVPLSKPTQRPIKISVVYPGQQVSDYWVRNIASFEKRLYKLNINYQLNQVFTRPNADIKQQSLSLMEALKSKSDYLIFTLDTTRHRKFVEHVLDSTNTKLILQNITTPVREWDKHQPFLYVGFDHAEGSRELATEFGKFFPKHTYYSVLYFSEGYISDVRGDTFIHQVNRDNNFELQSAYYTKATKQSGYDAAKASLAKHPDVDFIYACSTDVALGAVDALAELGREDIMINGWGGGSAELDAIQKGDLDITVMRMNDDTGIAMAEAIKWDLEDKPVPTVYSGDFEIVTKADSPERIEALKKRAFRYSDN

For `CC(=O)C(=O)[C@H](O)CO`, the outcome was Active.

As for `CC(=O)C(=O)[C@@H](O)CO`, the result was Active.
